Measured values as given in patent US20220354862A1, “LIPOSOME DELIVERY OF PSYCHEDELICS” (Mind Medicine, Inc., priority 2021, published 2022).

Tests used:
[1] = Pharmacokinetic evaluation in rats after bolus IV administration (noribogaine in plasma); assay type: in vivo, Sprague Dawley rats
Protocol: Pharmacokinetic Evaluation of the Tissue Distribution of Two Test Articles (Noribogaine and BTLS (Brain-Targeted Liposomes)-Noribogaine) in Rats
This study was conducted in adult male Sprague Dawley rats, weighing 250-275 g on arrival. Animals were housed according to the vivarium SOP on a 12-hr light cycle with food and water ad libitum.
72 rats were divided into 12 groups of 6. Test articles were dosed at 10 mg/kg of active substance (generic and liposomal formulation) and administered IV through the tail vein as a bolus. Animals were sampled for 24 hours after administration. Terminal blood and tissue samples (brain, heart, kidney, liver) were collected at 0.08, 0.25, 1, 2, 4 and 8 hours after the dose. The study compared the two groups, noribogaine and BTLS-noribogaine formulation. Concentration of noribogaine in the plasma and tissues was measured ex vivo and pharmacokinetic analysis was performed.

hERG potassium channels = hERG potassium channels (Homo sapiens, UniProt Q12809); conditions: high doses; cited from earlier work
heroin addict = conditions: oral, cited from earlier work

Chain of hERG potassium channels (Q12809 whole entry): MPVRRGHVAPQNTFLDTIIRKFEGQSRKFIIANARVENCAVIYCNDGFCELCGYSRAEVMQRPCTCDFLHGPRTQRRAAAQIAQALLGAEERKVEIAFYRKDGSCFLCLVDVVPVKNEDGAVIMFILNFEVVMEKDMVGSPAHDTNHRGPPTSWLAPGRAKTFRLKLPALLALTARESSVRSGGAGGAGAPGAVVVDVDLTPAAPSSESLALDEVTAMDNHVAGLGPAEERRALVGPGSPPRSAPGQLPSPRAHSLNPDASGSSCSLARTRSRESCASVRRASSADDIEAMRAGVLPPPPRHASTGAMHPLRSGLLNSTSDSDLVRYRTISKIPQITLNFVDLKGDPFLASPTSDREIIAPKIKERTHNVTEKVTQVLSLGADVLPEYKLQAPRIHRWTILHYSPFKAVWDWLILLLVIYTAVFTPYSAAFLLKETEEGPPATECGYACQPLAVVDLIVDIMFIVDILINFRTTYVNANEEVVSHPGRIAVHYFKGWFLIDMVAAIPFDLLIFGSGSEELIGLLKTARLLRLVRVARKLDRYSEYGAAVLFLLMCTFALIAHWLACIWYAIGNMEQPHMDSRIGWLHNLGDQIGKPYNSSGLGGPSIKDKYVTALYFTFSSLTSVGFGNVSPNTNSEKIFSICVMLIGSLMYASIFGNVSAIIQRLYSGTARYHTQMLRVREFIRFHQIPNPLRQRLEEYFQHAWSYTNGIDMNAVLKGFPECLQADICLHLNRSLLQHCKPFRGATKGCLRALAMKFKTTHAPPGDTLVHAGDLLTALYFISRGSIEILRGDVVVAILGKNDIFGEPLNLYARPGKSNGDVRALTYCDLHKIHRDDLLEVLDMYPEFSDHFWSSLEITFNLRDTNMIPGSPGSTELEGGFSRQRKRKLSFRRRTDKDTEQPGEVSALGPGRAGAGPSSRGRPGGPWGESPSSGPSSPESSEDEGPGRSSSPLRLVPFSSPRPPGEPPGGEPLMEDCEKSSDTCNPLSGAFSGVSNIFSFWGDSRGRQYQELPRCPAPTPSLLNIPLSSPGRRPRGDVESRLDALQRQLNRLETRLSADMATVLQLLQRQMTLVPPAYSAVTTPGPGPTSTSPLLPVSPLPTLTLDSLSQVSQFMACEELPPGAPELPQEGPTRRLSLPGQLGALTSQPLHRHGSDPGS

CC[C@H]1C[C@H]2C[C@H]3c4[nH]c5ccc(O)cc5c4CCN(C2)[C@@H]13 [NOR, noribogaine]
Cl ([1]; rat): 0.0064 mL/h
Vss ([1]; rat): 0.0119 mL
Cmax ([1]; rat plasma): 223.6 ng/mL
T_half ([1]; rat plasma): 1.4558 h
Tmax ([1]; rat plasma): 30 min
Cardiotoxicity: long QT syndrome / hERG block (hERG potassium channels): cause long QT syndrome by blocking hERG potassium channels

ibogaine
Treatments effective, share of cases (heroin addict; 6 mg/kg to 19 mg/kg): 71%
Duration of effect of a series of 4 treatments (heroin addict; series of 4 treatments): approximately 3 years
Duration of effect of a single treatment (heroin addict; single treatment): about 6 months
minimum effective dose (heroin addict): 400 mgs
